Data: ChEMBL document CHEMBL1697731, “Cheminformatics analysis of assertions mined from literature that describe drug-induced liver injury in different species” (Chem Res Toxicol, 2010)

Legend:
Hepatotoxicity [1] = assay: Literature-mined compound from Fourches et al multi-species drug-induced liver injury (DILI) dataset, effect in humans; details: human
Hepatotoxicity [2] = assay: Literature-mined compound from Fourches et al multi-species drug-induced liver injury (DILI) dataset, effect in rodents; details: rodentia
Hepatotoxicity [3] = assay: Literature-mined compound from Fourches et al multi-species drug-induced liver injury (DILI) dataset, effect in non-rodents

Compound	Hepatotoxicity (Hepatotoxicity [1])	Hepatotoxicity (Hepatotoxicity [2])	Hepatotoxicity (Hepatotoxicity [3])	Hepatotoxicity (Hepatotoxicity [1]; Liver)	Hepatotoxicity (Hepatotoxicity [2]; Liver)	Hepatotoxicity (Hepatotoxicity [3]; Liver)
O=C(CCNNC(=O)c1ccncc1)NCc1ccccc1 [NIALAMIDE]	no drug-induced liver injury reported	drug-induced liver injury reported	no drug-induced liver injury reported			
C=O [FORMALDEHYDE]				drug-induced liver injury reported	drug-induced liver injury reported	no drug-induced liver injury reported
COc1cccc2c1C(=O)c1c(O)c3c(c(O)c1C2=O)C[C@@](O)(C(=O)CO)C[C@@H]3O[C@H]1C[C@H](N)[C@H](O)[C@H](C)O1.Cl [DOXORUBICIN HYDROCHLORIDE]	drug-induced liver injury reported	no drug-induced liver injury reported	no drug-induced liver injury reported			
Fc1ccc([C@@H]2CCNC[C@H]2COc2ccc3c(c2)OCO3)cc1 [PAROXETINE]	drug-induced liver injury reported	no drug-induced liver injury reported	no drug-induced liver injury reported			
COc1ccnc(C[S+]([O-])c2nc3ccc(OC(F)F)cc3[nH]2)c1OC (stereo not drawn) [PANTOPRAZOLE]	drug-induced liver injury reported	no drug-induced liver injury reported	no drug-induced liver injury reported			
O=C(O)CCCC[C@@H]1SC[C@@H]2NC(=O)N[C@@H]21 [BIOTIN]	drug-induced liver injury reported	no drug-induced liver injury reported	no drug-induced liver injury reported			
CN1[C@@H]2CC[C@H]1C[C@@H](OC(=O)C(CO)c1ccccc1)C2 (mixture of isomers) [ATROPINE]				no drug-induced liver injury reported	drug-induced liver injury reported	no drug-induced liver injury reported
COc1ccc2nc([S@@+]([O-])Cc3ncc(C)c(OC)c3C)[nH]c2c1 [ESOMEPRAZOLE]	drug-induced liver injury reported	no drug-induced liver injury reported	no drug-induced liver injury reported			
C[C@H]1C[C@H]2[C@@H]3CCC4=CC(=O)C=C[C@]4(C)[C@@]3(F)[C@@H](O)C[C@]2(C)[C@@]1(O)C(=O)CO [BETAMETHASONE]	no drug-induced liver injury reported	drug-induced liver injury reported	no drug-induced liver injury reported			
CC(C)n1c(/C=C/C(O)CC(O)CC(=O)O)c(-c2ccc(F)cc2)c2ccccc21 (stereo not drawn) [FLUVASTATIN]				drug-induced liver injury reported	drug-induced liver injury reported	no drug-induced liver injury reported
COC(=O)[C@H](c1ccccc1Cl)N1CCc2sccc2C1 [CLOPIDOGREL]				drug-induced liver injury reported	drug-induced liver injury reported	no drug-induced liver injury reported
O=C(OOC(=O)c1ccccc1)c1ccccc1 [BENZOYL PEROXIDE]	no drug-induced liver injury reported	drug-induced liver injury reported	no drug-induced liver injury reported			
Cc1cccc(C)c1NC(=O)C1CCCCN1C (stereo not drawn) [MEPIVACAINE]	no drug-induced liver injury reported	drug-induced liver injury reported	no drug-induced liver injury reported			
HEPARIN	drug-induced liver injury reported	drug-induced liver injury reported	drug-induced liver injury reported			
N=C(N)NN [PIMAGEDINE]	no drug-induced liver injury reported	drug-induced liver injury reported	no drug-induced liver injury reported			
CSCC[C@H](NC(=O)[C@H](Cc1c[nH]c2ccccc12)NC(=O)CCNC(=O)OC(C)(C)C)C(=O)N[C@@H](CC(=O)O)C(=O)N[C@@H](Cc1ccccc1)C(N)=O [PENTAGASTRIN]	drug-induced liver injury reported	drug-induced liver injury reported	no drug-induced liver injury reported			
Nc1ccc(S(=O)(=O)Nc2ccnn2-c2ccccc2)cc1 [SULFAPHENAZOLE]	drug-induced liver injury reported	drug-induced liver injury reported	no drug-induced liver injury reported			
CCN(CC)C(=S)[S][Na] [DITIOCARB SODIUM]	no drug-induced liver injury reported	drug-induced liver injury reported	no drug-induced liver injury reported			

Compound	Hepatotoxicity (Hepatotoxicity [1])	Hepatotoxicity (Hepatotoxicity [2])	Hepatotoxicity (Hepatotoxicity [3])	Hepatotoxicity (Hepatotoxicity [1]; Liver)	Hepatotoxicity (Hepatotoxicity [2]; Liver)	Hepatotoxicity (Hepatotoxicity [3]; Liver)
OCCOCCN1CCN(C(c2ccccc2)c2ccc(Cl)cc2)CC1 (stereo not drawn) [HYDROXYZINE]	drug-induced liver injury reported	no drug-induced liver injury reported	no drug-induced liver injury reported			
CCCCC1C(=O)N(c2ccccc2)N(c2ccc(O)cc2)C1=O (stereo not drawn) [OXYPHENBUTAZONE ANHYDROUS]	no drug-induced liver injury reported	drug-induced liver injury reported	no drug-induced liver injury reported			
CC1=C(/C=C/C(C)=C/C=C/C(C)=C/C(=O)Nc2ccc(O)cc2)C(C)(C)CCC1 [FENRETINIDE]	drug-induced liver injury reported	drug-induced liver injury reported	no drug-induced liver injury reported			
CCC(=C(c1ccc(O)cc1)c1ccc(OCCN(C)C)cc1)c1ccccc1	drug-induced liver injury reported	drug-induced liver injury reported	no drug-induced liver injury reported			
CC(=O)OCC(=O)[C@@]1(O)CC[C@H]2[C@@H]3CCC4=CC(=O)CC[C@]4(C)[C@H]3C(=O)C[C@@]21C [CORTISONE ACETATE]	no drug-induced liver injury reported	drug-induced liver injury reported	no drug-induced liver injury reported			
CCCCC(=O)N(Cc1ccc(-c2ccccc2-c2nnn[nH]2)cc1)[C@H](C(=O)O)C(C)C	drug-induced liver injury reported	drug-induced liver injury reported	no drug-induced liver injury reported			
O=c1[nH]cc(Br)c(=O)[nH]1 [5-BROMOURACIL]	no drug-induced liver injury reported	drug-induced liver injury reported	no drug-induced liver injury reported			
Cc1[nH]c(/C=C2\C(=O)Nc3ccccc32)c(C)c1CCC(=O)O [ORANTINIB]	drug-induced liver injury reported	no drug-induced liver injury reported	no drug-induced liver injury reported			
CC(C)NCC(O)COc1ccc(CC(N)=O)cc1 (stereo not drawn) [ATENOLOL]				drug-induced liver injury reported	no drug-induced liver injury reported	no drug-induced liver injury reported
COc1cc([C@@H]2c3cc4c(cc3[C@@H](O[C@@H]3O[C@@H]5CO[C@@H](C)O[C@H]5[C@H](O)[C@H]3O)[C@H]3COC(=O)[C@H]23)OCO4)cc(OC)c1O [ETOPOSIDE]				drug-induced liver injury reported	drug-induced liver injury reported	no drug-induced liver injury reported
CN(C)CCC(c1ccc(Cl)cc1)c1ccccn1 (stereo not drawn) [CHLORPHENIRAMINE]	drug-induced liver injury reported	no drug-induced liver injury reported	no drug-induced liver injury reported			
N[C@@H](Cc1ccc(N(CCCl)CCCl)cc1)C(=O)O	drug-induced liver injury reported	drug-induced liver injury reported	no drug-induced liver injury reported			
CC(COc1ccccc1)NC(C)C(O)c1ccc(O)cc1 (stereo not drawn) [ISOXSUPRINE]	no drug-induced liver injury reported	drug-induced liver injury reported	no drug-induced liver injury reported			
COc1ccc([C@@H]2CC(=O)c3c(O)cc(O[C@@H]4O[C@H](CO[C@@H]5O[C@@H](C)[C@H](O)[C@@H](O)[C@H]5O)[C@@H](O)[C@H](O)[C@H]4O)cc3O2)cc1O [HESPERIDIN]	drug-induced liver injury reported	drug-induced liver injury reported	no drug-induced liver injury reported			
C[C@@H]1O[C@@H](O[C@@H]2C=C3CC[C@@H]4[C@H](CC[C@]5(C)[C@@H](c6ccc(=O)oc6)CC[C@]45O)[C@@]3(C)CC2)[C@H](O)[C@H](O)[C@H]1O[C@@H]1O[C@H](CO)[C@@H](O)[C@H](O)[C@H]1O	no drug-induced liver injury reported	drug-induced liver injury reported	no drug-induced liver injury reported			
CN(C)CCC=C1c2ccccc2CCc2ccccc21 [AMITRIPTYLINE]	drug-induced liver injury reported	drug-induced liver injury reported	no drug-induced liver injury reported			
CSCC[C@H](N)C(=O)O [METHIONINE]				drug-induced liver injury reported	drug-induced liver injury reported	drug-induced liver injury reported
CC(=O)O[C@]1(C(C)=O)CC[C@H]2[C@@H]3C[C@H](C)C4=CC(=O)CC[C@]4(C)[C@H]3CC[C@@]21C [MEDROXYPROGESTERONE ACETATE]	no drug-induced liver injury reported	drug-induced liver injury reported	no drug-induced liver injury reported			
